Where “and” joins values, the source holds several entries; their conditions need not be identical. Equal entries are not always repeated.
Tests used:
Type in all cases: cell-based
[1] = biological target: T1, 320 non-olfactory GPCRs (Homo sapiens, UniProt Q96RI0)
T1 construct: expressed in transfected cells; host or cells: HTLA cells

[2] = biological target: T2, 320 non-olfactory GPCRs (Homo sapiens, UniProt Q99788)
T2 construct: expressed in transfected cells; host or cells: HTLA cells

[3] = biological target: T3, 320 non-olfactory GPCRs (Homo sapiens, UniProt P47900); conditions: receptor P2RY1; replicate values, Fig_4g
T3 construct: expressed in transfected cells; host or cells: HTLA cells
T3 sequence (P47900 whole entry): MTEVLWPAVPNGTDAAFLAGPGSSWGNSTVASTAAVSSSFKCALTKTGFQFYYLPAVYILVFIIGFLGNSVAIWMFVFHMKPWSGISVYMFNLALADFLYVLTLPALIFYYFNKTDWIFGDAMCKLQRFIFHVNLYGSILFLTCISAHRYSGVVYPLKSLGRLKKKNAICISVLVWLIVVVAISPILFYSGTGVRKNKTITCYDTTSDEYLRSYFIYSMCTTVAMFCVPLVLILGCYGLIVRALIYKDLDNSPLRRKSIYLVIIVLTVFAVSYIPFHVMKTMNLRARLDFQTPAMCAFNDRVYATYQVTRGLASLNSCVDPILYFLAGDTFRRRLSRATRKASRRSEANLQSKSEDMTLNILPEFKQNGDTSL

[4] = biological target: T4, 320 non-olfactory GPCRs (Homo sapiens, UniProt Q96P66)
T4 construct: expressed in transfected cells; host or cells: HTLA cells
T4 sequence (Q96P66 whole entry): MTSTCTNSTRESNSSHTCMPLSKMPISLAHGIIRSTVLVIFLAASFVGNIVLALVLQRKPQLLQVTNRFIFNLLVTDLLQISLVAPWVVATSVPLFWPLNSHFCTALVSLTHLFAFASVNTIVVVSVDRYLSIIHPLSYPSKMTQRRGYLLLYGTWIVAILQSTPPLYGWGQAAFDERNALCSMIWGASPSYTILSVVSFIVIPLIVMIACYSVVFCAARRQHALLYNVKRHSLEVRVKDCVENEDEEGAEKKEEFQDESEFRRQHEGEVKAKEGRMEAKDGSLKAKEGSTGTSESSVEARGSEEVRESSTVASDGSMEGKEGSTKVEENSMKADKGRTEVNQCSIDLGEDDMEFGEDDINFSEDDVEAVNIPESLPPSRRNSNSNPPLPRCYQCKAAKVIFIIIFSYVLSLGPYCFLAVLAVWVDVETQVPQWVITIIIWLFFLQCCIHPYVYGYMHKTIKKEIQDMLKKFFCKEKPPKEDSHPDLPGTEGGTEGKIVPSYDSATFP
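Throughout, for Fold of Basal: compound tested at 1 µM final concentration.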
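Throughout, for GPCRome agonism screen response: fold over basal response of each receptor without drug.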

T1 sequence (Q96RI0 18-385): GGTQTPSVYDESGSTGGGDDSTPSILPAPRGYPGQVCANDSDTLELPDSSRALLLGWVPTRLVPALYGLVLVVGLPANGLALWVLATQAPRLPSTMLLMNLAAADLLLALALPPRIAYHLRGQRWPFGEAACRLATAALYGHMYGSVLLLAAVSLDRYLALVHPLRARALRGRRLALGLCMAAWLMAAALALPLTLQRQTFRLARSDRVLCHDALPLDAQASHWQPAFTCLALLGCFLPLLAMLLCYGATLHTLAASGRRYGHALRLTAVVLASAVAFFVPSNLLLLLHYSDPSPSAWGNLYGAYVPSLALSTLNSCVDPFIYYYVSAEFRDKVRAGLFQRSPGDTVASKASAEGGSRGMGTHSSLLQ
T2 sequence (Q99788 whole entry): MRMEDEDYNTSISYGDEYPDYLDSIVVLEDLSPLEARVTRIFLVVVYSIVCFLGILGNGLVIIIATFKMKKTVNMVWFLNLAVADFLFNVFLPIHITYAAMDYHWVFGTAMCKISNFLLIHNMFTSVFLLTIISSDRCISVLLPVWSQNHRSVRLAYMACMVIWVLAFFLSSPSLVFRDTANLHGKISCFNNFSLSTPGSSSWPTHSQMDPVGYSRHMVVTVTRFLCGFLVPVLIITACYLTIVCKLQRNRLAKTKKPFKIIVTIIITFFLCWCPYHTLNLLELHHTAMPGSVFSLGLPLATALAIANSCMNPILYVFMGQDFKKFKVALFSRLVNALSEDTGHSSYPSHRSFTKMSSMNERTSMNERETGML

SMILES: CCOc1cccc2cc(C(C)NCC3(O)CCCCC3)oc12 (stereo not shown) [O4LE6]
- Fold of Basal [1]: 0.98 and 0.6043 and 0.591 and 0.7202
- Fold of Basal [2]: 0.9321 and 1.173 and 0.7369 and 1.152
- GPCRome agonism screen response [3]: 1.006 and 0.5483 and 1.2859 and 1.3533
- Fold of Basal [4]: 1.216 and 1.226 and 0.7864 and 1.078
